Laboratory results taken from patent US8435564B2, “Pharmaceutical compositions comprising brivaracetam” (UCB Pharma, S.A., priority 2008, dated 2013).
Values after ≈ are worked out from the molar mass of the structure shown.

Tests used:
[1] = water solubility of the active ingredient; type: physicochemical
Method: Brivaracetam is a very water soluble active ingredient (ca. 700 mg/ml), and it is not obvious to slow down the release of the drug.

BCS classification = type: physicochemical
Method: Considering Brivaracetam is classified as BCS I, the resulting in vitro dissolution (USP <711> apparatus no 2) in a buffered aqueous media has to show a drug release of no more than 40% after 1 hour of dissolution, of 35%-80% after 4 hours of dissolution and of no less than 80% after 16 hours of dissolution. Preferably, a profile of no more than 35% after 1 hour of dissolution, of 40%-75% after 4 hours of dissolution and of no less than 80% after 16 hours of dissolution. More preferably a profile of no more than 30% after 1 hour of dissolution, of 45%-70% after 4 hours of dissolution and of no less than 80% after 16 hours of dissolution.

## CCC[C@@H]1CC(=O)N([C@@H](CC)C(N)=O)C1 [Brivaracetam, (2S)-2-[(4R)-2-oxo-4-propyl-pyrrolidin-1-yl]butanamide]
[1]
  solubility: ~700 mg/mL (≈ 3300 mM)
BCS classification
  BCS class: BCS I
